The test system of assay [1] is HXB2-strain of HIV in MT4 cells. As to the kind of experiment: Antiviral assay: protection of HIV-infected MT4 cells from cell-death (MTT). The conditions noted are these: Human immunodeficiency virus 1, 120 h; MT4 cells infected with HXB2-strain of HIV, 5 d, MTT viability. It counts as cell-based. As for the experimental part:
Anti-HIV antiviral activity was assessed using an adaptation of the method of Pauwels et al. {Pauwels et al., 1988, J Virol Methods 20:309-321}. The method is based on the ability of compounds to protect HIV-infected T lymphoblastoid cells (MT4 cells) from cell-death mediated by the infection. The endpoint of the assay was calculated as the concentration of compound at which the cell viability of the culture was preserved by 50% (‘50% inhibitory concentration’, IC50). The cell viability of a culture was determined by the uptake of soluble, yellow 3-[4,5-dimethylthiazol-2-yl]-2,5-diphenyltetrazolium bromide (MTT) and its reduction to a purple insoluble formazan salt. After solubilization, spectrophotometric methods were employed to measure the amount of formazan product.
MT4 cells were prepared to be in logarithmic-phase growth and a total of 2×10^6 cells infected with the HXB2-strain of HIV at a multiplicity of 0.0001 infectious units of virus per cell in a total volume of between 200-500 microliters. The cells were incubated with virus for one h at 37° C. before removal of virus. The cells are then washed in 0.01 M phosphate buffered saline, pH 7.2 before being resuspensed in culture medium for incubation in culture with serial dilutions of test compound. The culture medium used was RPMI 1640 without phenol red, supplemented with penicillin, streptomycin, L-glutamine and 10% fetal calf serum (GM10).
Test compounds were prepared as 2 mM solutions in dimethyl sulphoxide (DMSO). Four replicate, serial 2-fold dilutions in GM10 were then prepared and 50 microliters amounts placed in 96-well plates over a final nanomolar concentration range of 625-1.22. Fifty microliters GM10 and 3.5×10^4 infected cells were then added to each well. Control cultures containing no cells (blank), uninfected cells (100% viability; 4 replicates) and infected cells without compound (total virus-mediated cell death; 4 replicates) were also prepared. The cultures were then incubated at 37° C. in a humidified atmosphere of 5% CO2 in air for 5 d.
A fresh solution of 5 mg/mL MTT was prepared in 0.01 M phosphate buffered saline, pH 7.2 and 20 microliters added to each culture. The cultures were further incubated as before for 2 h. They were then mixed by pipetting up and down and 170 microliters of Triton X-100 in acidified isopropanol (10% v/v Triton X-100 in 1:250 mixture of concentrated HCl in isopropanol). When the formazan deposit was fully solubilized by further mixing, the absorbance (OD) of the cultures was measured at 540 nm and 690 nm wavelength (690 nm readings were used as blanks for artifacts between wells). The percent protection for each treated culture was calculated using the equation: [formula]

The target of the next assay is HIV-1 RT (Human immunodeficiency virus type 1 group M subtype B, UniProt P04585). As to the kind of experiment: HIV-1 Reverse Transcriptase Assay: Inhibitor IC50 Determination. The format is biochemical. As to conditions: purified recombinant enzyme, poly(rA)/oligo(dT)16 template-primer, 37° C. 30 min. The protocol: HIV-1 Reverse Transcriptase Assay: Inhibitor IC50 Determination.
HIV-1 RT assay was carried out in 96-well Millipore filtermat NOB50 plates using purified recombinant enzyme and a poly(rA)/oligo(dT)16 template-primer in a total volume of 50 μL. The assay constituents were 50 mM Tris/HCl, 50 mM NaCl, 1 mM EDTA, 6 mM MgCl2, 5 μM dTTP, 0.1 μCi [^3H] dTTP, 5 μg/ml poly (rA) pre annealed to 2.5 μg/ml oligo (dT)16 and a range of inhibitor concentrations in a final concentration of 10% DMSO. Reactions were initiated by adding 5 nM HIV-1 RT and after incubation at 37° C. for 30 min, they were stopped by the addition of 50 μl ice cold 20% TCA and allowed to precipitate at 4° C. for 30 min. The precipitates were collected by applying vacuum to the plate and sequentially washing with 2×200 μl of 10% TCA and 2×200 μl 70% ethanol. Finally the plates were dried and radioactivity counted in a Wallac Microbeta 1450 after the addition of 15 μl scintillation fluid per well. IC50's were calculated by plotting % inhibition versus log10 inhibitor concentrations.

Structures are written as SMILES.

By IC50 is commonly meant the concentration needed to halve the response being measured. For `CC(C)c1cc(COC(N)=O)n(Cc2ccncc2)c1Sc1cc(Cl)cc(Cl)c1`, the half-maximal inhibitory concentration (IC50) in assay [1] stood at 16 nM; at HIV-1 RT it was 33 nM. With `CC(=O)NCc1c(C(C)C)c(Sc2cc(Cl)cc(Cl)c2)n(Cc2ccncc2)c1C`, the IC50 in assay [1] is 32 nM; at HIV-1 RT, 198 nM. For the compound `Cc1c(C#N)c(-c2ccccc2)c(Sc2cc(Cl)cc(Cl)c2)n1Cc1ccncc1`, the IC50 at HIV-1 RT was 2450 nM. Consider `CC(=O)/C=C/c1cc(C(C)C)c(Sc2cc(Cl)cc(Cl)c2)n1Cc1ccncc1`, for which, on HIV-1 RT, the IC50 worked out at 972 nM. With `Cc1c(C(N)=O)c(C(C)C)c(Sc2cc(Cl)cc(Cl)c2)n1Cc1ccncc1`, the IC50 in assay [1] came out at 22 nM; at HIV-1 RT, 150 nM. For `CCc1c(CO)c(C(C)C)c(Sc2cc(Cl)cc(Cl)c2)n1Cc1ccncc1`, the concentration for half-maximal inhibition (IC50) worked out at 11 nM in assay [1] and 43 nM at HIV-1 RT. As for `Cc1c(CN=[N+]=[N-])c(C(C)C)c(Sc2cc(Cl)cc(Cl)c2)n1Cc1ccncc1`, the IC50 in assay [1] is 16 nM; at HIV-1 RT, 91 nM. On to `Cc1c(CO)c(C(C)C)c(Sc2cc(Cl)ccc2Cl)n1Cc1ccncc1`, for which the half-maximal inhibitory concentration (IC50) turned out to be 69 nM in assay [1] and 86 nM at HIV-1 RT. For `Cc1c(C(C)C)c(Sc2cc(Cl)cc(Cl)c2)n(Cc2ccncc2)c1C` the same measures were 94 nM and 125 nM.

With `COCc1c(C(C)C)c(Sc2cc(Cl)cc(Cl)c2)n(Cc2ccncc2)c1C`, the IC50 was 91 nM in assay [1] and 658 nM on HIV-1 RT. For `Cc1c(CNC(=O)c2ccccc2)c(C(C)C)c(Sc2cc(Cl)cc(Cl)c2)n1Cc1ccncc1`, the IC50 in assay [1] stood at 84 nM; on HIV-1 RT, 283 nM. As for `Cc1cc(C(C)C)c(Sc2cc(Cl)cc(Cl)c2)n1Cc1ccncc1`, the half-maximal inhibitory concentration (IC50) in assay [1] came to 44 nM; at HIV-1 RT, 117 nM.

As for `CC(C)c1c(CO)c(C(C)C)n(Cc2ccncc2)c1Sc1cccc(Cl)c1`, the IC50 in assay [1] is 110 nM; on HIV-1 RT, 272 nM. Regarding `CC(C)c1c(CO)c(CO)n(Cc2ccncc2)c1Sc1cc(Cl)cc(Cl)c1`, the half-inhibitory concentration (IC50) in assay [1] came to 10 nM; on HIV-1 RT, 60 nM. As to `CC(C)c1cc(CO)n(Cc2ccncc2)c1Sc1cc(Cl)cc(Cl)c1`, the IC50 was determined as 183 nM in assay [1] and 289 nM on HIV-1 RT. For `Cc1c(CO)c(-c2ccccc2)c(Sc2cc(Cl)cc(Cl)c2)n1Cc1ccncc1` the same measures were 407 nM and 493 nM. In the case of `Cc1c(CO)c(C(C)C)c(Sc2cc(Cl)cc(Cl)c2)n1Cc1cccnc1`, the results for the IC50 (in assay [1]; on HIV-1 RT) were 17.5 nM and 79 nM, respectively.

In the case of `Cc1c(CO)c(C(C)C)c(Sc2ccccc2)n1Cc1ccncc1`, the IC50 worked out at 11.5 nM in assay [1] and 260 nM at HIV-1 RT. In the case of `Cc1c(CO)c(C)n(Cc2ccncc2)c1Sc1cc(Cl)cc(Cl)c1`, the IC50 in assay [1] came out at 49 nM; at HIV-1 RT it was 287 nM. Take `Cc1c(CO)c(C(C)C)c(Sc2ccc(F)cc2Cl)n1Cc1ccncc1`: the IC50 on HIV-1 RT came out at 5430 nM.

For `Cc1c(CO)c(C(C)C)c(Sc2cccc(Cl)c2)n1Cc1cscn1`, the concentration for half-maximal inhibition (IC50) on HIV-1 RT turned out to be 4120 nM. The same measure, in the same setting: next, `COC(=O)NCc1c(C(C)C)c(Sc2cc(Cl)cc(Cl)c2)n(Cc2ccncc2)c1C`: 90 nM. For the compound `Cc1c(CO)c(C(C)C)c(Sc2cc(Cl)cc(Cl)c2)n1C`, the IC50 was determined as 580 nM in assay [1] and 930 nM on HIV-1 RT.

Values taken from US6737429B2, “Pyrrole derivatives” (Hoffmann-La Roche Inc., priority 2000, dated 2004).
